Measurements published in US20170071976A1, “PHARMACEUTICAL SOLUTION HAVING ANTI-TUMOR EFFECT-ENHANCING AND TOXICITY-REDUCING EFFECT, AND PHARMACEUTICAL COMPOSITION COMPRISING SAME” (priority 2014, published 2017).
“And” between values parts separate entries of the source, which are not always exact repeats. Equal entries are not always repeated. Marks after values point to notes of the source that are not given here.

Assays:
[1] = test system: human lung cancer A549 cells; test: Cell cycle by PI single staining (flow cytometry); type: cell-based; settings: deuterium oxide 30% v/v, 72 hours
Description: Effect of deuterium oxide on the cell cycle of human lung cancer A549 cells and human colon cancer HCT-116 cells Human lung cancer A549 cells and human colon cancer HCT-116 cells were provided by NANJING […] BIOTECH. CO., LTD., and cultured in an incubator at 37° C., 5% CO2 and saturated humidity. A KGA511 Cell cycle assay kit was provided by NANJING […] BIOTECH. CO., LTD. The flow cytometer was FACS Calibur provided by Becton-Dickinson, US. […] The cell suspension was centrifuged at 800 to 1,000 rpm for 5 min, and the supernatant was discarded; 1.4. A complete culture medium was added to the cell pellet which was well mixed by gentle pipetting, the cell suspension was transferred to a culture flask, and the cells were cultured by supplementing culture medium. […] When all the cells became round, an equal volume of culture medium containing serum was added to cease the digestion; 2.4. The cells were blown by pipetting to suspend, then drawn into a 15 ml centrifugal tube, and centrifuged at 1000 rpm for 5 min; 2.5. […] 1. Cells growing in the exponential phase were digested and inoculated to a 6-well plate; on the next day, after the cells attached to the wall, cell culture media containing corresponding test drugs were added according to different groups, and a negative control group was also set; 2. […] The cells were washed with PBS once (centrifuged at 2,000 rpm for 5 min), and 5×10^5 cells were collected; 4. […] In a detection apparatus, red fluorescence with an excitation wavelength of 488 nm was recorded.

malignant tumors = settings: as a single drug in clinical settings; cited from earlier work
[2] = test system: human colon cancer HCT-116 cells inoculated into the peritoneal cavity; test: Survival of nude mice bearing HCT-116 cells, 42° C. intraperitoneal retention lavage with hydroxyethyl starch or sodium chloride deuterium oxide solution and 5-FU; type: in vivo; settings: 42° C. NS 10 ml/kg + 5-FU 20 mg/kg, i.p. lavage x 5
Description: Comparison of survival time of nude mice bearing human colon cancer HCT-116 cells upon 42° C. hyperthermic intraperitoneal retention lavage using a hydroxyethyl starch deuterium oxide solution in combination with 5-FU and using a sodium chloride deuterium oxide solution in combination with 5-FU.
Animal: 4 to 5 week-aged male nude mice, provided by Shanghai SIPPR-BK Laboratory Animal Co. Ltd.
Cell lines: human colon cancer cell line HCT-116 was provided by NANJING KEYGEN BIOTECH. CO., LTD.
Modeling: 0.2 ml suspension of HCT-116 cancer cells containing 1×10^7 cells/ml (2×10^6 cells in total) was inoculated into the peritoneal cavity of the nude mice.
Grouping and dosing: the mouse model was established 7 to 8 days after inoculation into the nude mice, and the mice were randomized with 18 animals/group.
5-FU was separately dissolved in the hydroxyethyl starch deuterium oxide solution at 42° C., and in the sodium chloride deuterium oxide solution at 42° C., for intraperitoneal lavage of tumor-bearing mice.
1). […]
The peritoneal cavity of nude mice was lavaged with the above compositions which were retained for 20 min in the peritoneal cavity after being introduced, which was performed once a day for 5 successive times. The body weight and abdomen circumference of the nude mice were measured on each day before administration of the drugs, and the daily living status of mice was observed. […]

[3] = test system: xenograft tumors from human colon cancer HCT-116 cells; test: HCT-116 xenograft in nude mice, intravenous deuterium oxide in combination with 5-fluorouracil; type: in vivo, BALB/c nude mice; settings: for Inhibition (%): tumor weight
Description: Ltd. Cell lines: human colon cancer cells HCT-116 were provided by NANJING […] BIOTECH. CO., LTD. […] Bone marrow nucleated cells were isolated by a routine method, DNA was extracted from the cells, the OD value was measured in a UV-260 spectrometer as a representative of the DNA content, and inhibition of DNA synthesis by the test samples was observed. The test used 7 groups in total, with 8 animals per group. […] Tumor volume (TV) was calculated by the following equation: […] From the measurements, relative tumor volume (RTV) was calculated by the following equation: RTV=Vt/V0 Relative tumor growth ratio T/C (%) was calculated by the following equation: Criteria of efficacy evaluation: […] T/C %≦40% and statistically P<0.05, efficacious. Inhibition of tumor growth (%) was calculated by the following equation: Criteria of efficacy evaluation: […] The mean value was expressed in X±SD. Inter-group analysis was statistically performed with t test. The results were statistically analyzed using SPSS (Statistical Package for the Social Science) 17.0.

[4] = 5-FU(H) 30 mg/kg × 11, tail vein
[5] = 5-FU(L) 12 mg/kg × 11, tail vein

Row | SMILES | G2 Phase ([1]; control 6.21 ± 4.52) | S Phase ([1]; control 13.50 ± 1.33) | G1 Phase ([1]; control 80.29 ± 5.02) | overall response rate (malignant tumors) | T/C(%) [2] | MST ([2]; control 12.4 ± 2.9) | Body weight (g) End, given as change [3, 4] | Body weight (g) Initial [3, 4] | Bone marrow DNA content (OD) [3, 4] | Tumor weight [3, 4] | Body weight (g) End, given as change [3, 5] | Body weight (g) Initial [3, 5] | Bone marrow DNA content (OD) [3, 5] | Tumor weight [3, 5] | tumor volume ([3]; 21 days after administration, low-dose 5-FU alone) | body weight at end ([3]; high-dose 5-FU positive control) | T/C (relative tumor growth ratio) ([3]; low-dose 5-FU alone, vs negative control) | Inhibition (%) [3, 4] | Inhibition (%) [3, 5]
1 | [2H]O[2H] [Deuterium oxide] | 13.47 ± 3.94% | 0.31 ± 0.28% | 86.23 ± 3.69% | – | – | – | – | – | – | – | – | – | – | – | – | – | – | – | –
2 | O=c1[nH]cc(F)c(=O)[nH]1 [Example 5-FU, 5-fluorouracil] | – | – | – | 10% | 138.7% | 17.2 ± 2.2 days | -1.0 g | 18.4 ± 0.5 g and 18.4 g | 0.836 ± 0.5023 OD | 1.04 ± 0.13 g | -0.6 g | 18.0 g | 0.897 ± 0.3783 OD | 2.23 ± 0.2 g | 2.27±0.30 cm^3 | 17.4 ± 0.5 g | 80.91% | 64.38%* | 23.64% and 23.63%
